# Laboratory results: patent US20250368649A1, “TETRAHYDROPYRIDOPYRIMIDINE PAN-KRAS INHIBITORS” (Mirati Therapeutics, Inc., priority 2022, published 2025)
# Legend:
# [1] = target: KRas WT (Homo sapiens, UniProt P01116); assay: KRas binding assay (TR-FRET displacement), KRas WT; settings: for inhibition at 0.01 µM: single point, 10 nM compound; for IC50: TR-FRET displacement
# [2] = target: KRas G12A (Homo sapiens, UniProt P01116, G12A); format: binding; settings: single point, 10 nM compound, read-out: Binding to KRas (% inhibition at 10 nM) G12A
# Sequence of KRas G12A (P01116 1-169 isoform P01116-2 G12A): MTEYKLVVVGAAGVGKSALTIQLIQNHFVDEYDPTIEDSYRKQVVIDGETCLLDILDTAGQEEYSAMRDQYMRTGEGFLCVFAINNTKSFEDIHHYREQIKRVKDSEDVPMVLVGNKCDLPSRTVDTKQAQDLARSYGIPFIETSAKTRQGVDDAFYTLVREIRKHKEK
# [3] = target: KRas G12C (Homo sapiens, UniProt P01116, G12C); format: binding; settings: for inhibition at 0.01 µM: single point, 10 nM compound, read-out: Binding to KRas (% inhibition at 10 nM) G12C; for IC50: TR-FRET displacement, read-out: Binding to KRas (IC50 nM) G12C
# Sequence of KRas G12C (P01116 1-169 isoform P01116-2 G12C): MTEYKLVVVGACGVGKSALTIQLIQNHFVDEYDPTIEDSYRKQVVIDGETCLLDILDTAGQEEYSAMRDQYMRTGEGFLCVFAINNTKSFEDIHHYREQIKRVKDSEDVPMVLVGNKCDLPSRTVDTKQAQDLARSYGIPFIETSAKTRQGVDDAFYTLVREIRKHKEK
# [4] = target: KRas G12S (Homo sapiens, UniProt P01116, G12S); format: binding; settings: for inhibition at 0.01 µM: single point, 10 nM compound, read-out: Binding to KRas (% inhibition at 10 nM) G12S; for IC50: TR-FRET displacement, read-out: Binding to KRas (IC50 nM) G12S
# Sequence of KRas G12S (P01116 1-169 isoform P01116-2 G12S): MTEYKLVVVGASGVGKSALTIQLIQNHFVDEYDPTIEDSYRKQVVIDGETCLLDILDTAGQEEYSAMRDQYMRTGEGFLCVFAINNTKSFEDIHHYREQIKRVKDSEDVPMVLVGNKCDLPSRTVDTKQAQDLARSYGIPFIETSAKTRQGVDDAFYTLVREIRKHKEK
# [5] = target: KRas G13D (Homo sapiens, UniProt P01116, G13D); format: binding; settings: single point, 10 nM compound, read-out: Binding to KRas (% inhibition at 10 nM) G13D
# Sequence of KRas G13D (P01116 1-169 isoform P01116-2 G13D): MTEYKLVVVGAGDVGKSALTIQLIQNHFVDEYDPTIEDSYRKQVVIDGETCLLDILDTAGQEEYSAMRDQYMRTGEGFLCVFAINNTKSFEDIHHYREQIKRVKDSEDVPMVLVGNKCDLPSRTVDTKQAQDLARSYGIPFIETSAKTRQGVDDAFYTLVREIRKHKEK
# [6] = target: KRas Q61H (Homo sapiens, UniProt P01116, Q61H); assay: KRas binding assay (TR-FRET displacement), KRas Q61H; settings: single point, 10 nM compound
# Sequence of KRas Q61H (P01116 1-169 isoform P01116-2 Q61H): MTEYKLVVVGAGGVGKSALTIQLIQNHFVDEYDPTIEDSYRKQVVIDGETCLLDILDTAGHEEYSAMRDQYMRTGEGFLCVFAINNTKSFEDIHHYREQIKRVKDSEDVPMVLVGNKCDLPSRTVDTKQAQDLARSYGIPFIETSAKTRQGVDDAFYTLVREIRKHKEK
# [7] = system: MKN1 cells; assay: Inhibition of KRas-mediated phosphorylation of ERK (Cisbio HTRF pERK), MKN1 cells; format: cell-based; settings: Homo sapiens
# How it was run: (§1)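 Seeding density of 6,000 cells per well was used, with cultures kept in RPMI/10% FBS from day 1.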
# [8] = system: PSN1 cells; assay: Inhibition of KRas-mediated phosphorylation of ERK (Cisbio HTRF pERK), PSN1 cells; format: cell-based; settings: Homo sapiens, PSN1, 3 h
# How it was run: as §1
# [9] = system: ASPC1 cells; assay: Inhibition of KRas-mediated phosphorylation of ERK (Cisbio HTRF pERK), ASPC1 cells; format: cell-based; settings: Homo sapiens, ASPC1, 3 h, AsPC-1 cells, 3 hr compound incubation
# [10] = system: H727 cells; assay: Inhibition of KRas-mediated phosphorylation of ERK (Cisbio HTRF pERK), H727 cells; format: cell-based; settings: Homo sapiens, NCI-H727, 3 h, 3 hr compound incubation
# [11] = system: A549 cells; assay: Inhibition of KRas-mediated phosphorylation of ERK (Cisbio HTRF pERK), A549 cells; format: cell-based; settings: Homo sapiens; for IC50: A549, 3 h, 3 hr compound incubation; for inhibition at 0.1 µM: single point at 100 nM, 3 hrs compound incubation
# [12] = system: H460 cells; assay: Inhibition of KRas-mediated phosphorylation of ERK (Cisbio HTRF pERK), H460 cells; format: cell-based; settings: Homo sapiens, NCI-H460, 3 h, 3 hr compound incubation
# [13] = system: HCT116 cells; assay: Inhibition of KRas-mediated phosphorylation of ERK (Cisbio HTRF pERK), HCT116 cells; format: cell-based; settings: Homo sapiens, HCT-116, 3 h, 3 hr compound incubation
# [14] = system: H358 cells; assay: Inhibition of KRas-mediated phosphorylation of ERK (Cisbio HTRF pERK), H358 cells; format: cell-based; settings: Homo sapiens; for IC50: NCI-H358, 3 h, 3 hr compound incubation; for inhibition at 0.1 µM: NCI-H358, single point at 100 nM, 3 hrs compound incubation
# [15] = target: KRas G12D (Homo sapiens, UniProt P01116, G12D); assay: biochemical; settings: Binding to KRas (IC50 nM) G12D, TR-FRET displacement, KRas G12D
# Sequence of KRas G12D (P01116 1-169 isoform P01116-2 G12D): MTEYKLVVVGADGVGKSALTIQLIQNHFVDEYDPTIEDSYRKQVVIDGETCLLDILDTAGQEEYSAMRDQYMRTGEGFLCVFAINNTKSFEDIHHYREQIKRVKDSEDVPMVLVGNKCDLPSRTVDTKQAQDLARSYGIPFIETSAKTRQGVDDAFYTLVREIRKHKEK
# [16] = target: KRas G12R (Homo sapiens, UniProt P01116, G12R); assay: biochemical; settings: Binding to KRas (IC50 nM) G12R, TR-FRET displacement, KRas G12R
# Sequence of KRas G12R (P01116 1-169 isoform P01116-2 G12R): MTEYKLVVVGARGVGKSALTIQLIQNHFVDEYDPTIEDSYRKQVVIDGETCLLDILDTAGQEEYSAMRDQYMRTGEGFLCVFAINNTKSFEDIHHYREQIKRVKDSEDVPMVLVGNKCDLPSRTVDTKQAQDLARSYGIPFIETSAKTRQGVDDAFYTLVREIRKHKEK
# [17] = target: KRas G12V (Homo sapiens, UniProt P01116, G12V); assay: biochemical; settings: Binding to KRas (IC50 nM) G12V, TR-FRET displacement, KRas G12V
# Sequence of KRas G12V (P01116 1-169 isoform P01116-2 G12V): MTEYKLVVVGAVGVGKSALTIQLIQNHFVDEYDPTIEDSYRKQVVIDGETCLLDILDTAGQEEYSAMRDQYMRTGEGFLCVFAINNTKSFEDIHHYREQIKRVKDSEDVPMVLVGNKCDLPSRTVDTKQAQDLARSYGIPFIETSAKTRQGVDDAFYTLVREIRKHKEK
# [18] = system: H2009 cells; assay: Inhibition of KRas-mediated phosphorylation of ERK (Cisbio HTRF pERK), H2009 cells; format: cell-based; settings: Homo sapiens, NCI-H2009, 3 hr compound incubation
# [19] = MKN-1, 3 hour compound incubation, Cisbio pERK HTRF
# [20] = 3 hour compound incubation, Cisbio pERK HTRF
# [21] = MKN-1, 3 hr compound incubation
# Sequence of KRas WT (P01116 1-169 isoform P01116-2): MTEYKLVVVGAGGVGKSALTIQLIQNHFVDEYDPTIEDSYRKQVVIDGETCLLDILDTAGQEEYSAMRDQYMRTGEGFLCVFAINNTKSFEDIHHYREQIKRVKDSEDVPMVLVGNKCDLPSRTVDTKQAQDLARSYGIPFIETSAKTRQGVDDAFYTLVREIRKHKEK
inhibition at 0.01 µM [1] [%],inhibition at 0.01 µM [2] [%],inhibition at 0.01 µM [3] [%],inhibition at 0.01 µM [4] [%],inhibition at 0.01 µM [5] [%],inhibition at 0.01 µM [6] [%],"IC50 [7, 19] [nM]","IC50 [8, 20] [nM]",IC50 ([9]; Cisbio pERK HTRF) [nM],IC50 ([10]; Cisbio pERK HTRF) [nM],IC50 ([12]; Cisbio pERK HTRF) [nM],IC50 ([13]; Cisbio pERK HTRF) [nM],IC50 [15] [nM],IC50 [16] [nM],IC50 [17] [nM],IC50 [1] [nM],IC50 [3] [nM],IC50 [4] [nM],Compound,inhibition at 0.1 µM [11] [%],inhibition at 0.1 µM [14] [%],further results
95,95,99,98,95,97,9.6,3850,1,3,15,42,< 2,< 2,< 2,,,,"CCc1c(F)ccc2cc(O)cc(N3CCc4c(nc(OC[C@@]56CCCN5C[C@H](F)C6)nc4N4CCCn5nc(C(=O)N(CC)CC)cc5C4)C3)c12 [Example 390, N,N-diethyl-5-(7-(8-ethyl-7-fluoro-3-hydroxynaphthalen-1-yl)-2-(((2R,7aS)-2-fluorohexahydro-1H-pyrrolizin-7a-yl)methoxy)-5,6,7,8-tetrahydropyrido[3,4-d]pyrimidin-4-yl)-5,6,7,8-tetrahydro-4H-pyrazolo[1,5-a][1,4]diazepine-2-carboxamide]",79,98,IC50 ([11]; Cisbio pERK HTRF): 5 nM; IC50 ([14]; Cisbio pERK HTRF): 1 nM
81,81,93,94,86,85,57.6,> 10000,4,26,43,128,< 2,3,< 2,,,,"CCc1c(F)ccc2cc(O)cc(N3CCc4c(nc(OC[C@@]56CCCN5C[C@H](F)C6)nc4N4CCCn5nnc(Cl)c5C4)C3)c12 [Example 391, 4-(4-(3-chloro-7,8-dihydro-4H-[1,2,3]triazolo[1,5-a][1,4]diazepin-5(6H)-yl)-2-(((2R,7aS)-2-fluorohexahydro-1H-pyrrolizin-7a-yl)methoxy)-5,6-dihydropyrido[3,4-d]pyrimidin-7(8H)-yl)-5-ethyl-6-fluoronaphthalen-2-ol]",69,77,
55,56,78,71,50,54,111,> 10000,72,136,285,813,3,< 2,2,,,,"CCc1c(F)ccc2cc(O)cc(N3CCc4c(nc(OC[C@@]56CCCN5C[C@H](F)C6)nc4N4CCCn5nc6c(c5C4)CCCN6)C3)c12 [Example 392, 5-ethyl-6-fluoro-4-(2-(((2R,7aS)-2-fluorohexahydro-1H-pyrrolizin-7a-yl)methoxy)-4-(3,4,8,9-tetrahydro-1H-pyrido[2′,3′:3,4]pyrazolo[1,5-a][1,4]diazepin-6(2H,5H,7H)-yl)-5,6-dihydropyrido[3,4-d]pyrimidin-7(8H)-yl)naphthalen-2-ol]",38,47,
60,66,83,72,64,60,58.5,> 10000,59,201,72,235,4,4,5,,,,"CCc1c(F)ccc2cc(O)cc(N3CCc4c(nc(OC[C@@]56CCCN5C[C@H](F)C6)nc4N4CCCn5nc(NC)c(OC)c5C4)C3)c12 [Example 393, 5-ethyl-6-fluoro-4-(2-(((2R,7aS)-2-fluorohexahydro-1H-pyrrolizin-7a-yl)methoxy)-4-(3-methoxy-2-(methylamino)-7,8-dihydro-4H-pyrazolo[1,5-a][1,4]diazepin-5(6H)-yl)-5,6-dihydropyrido[3,4-d]pyrimidin-7(8H)-yl)naphthalen-2-ol]",41,83,
,,,,,,,,,,,,57,,60,52,48,60,"C[C@@]1(O)COCCN(c2nc(OC[C@@]34CCCN3C[C@H](F)C4)nc3c2CCN(c2ccc(F)c4sc(N)c(C#N)c24)C3)C1 [Example 710, 2-amino-7-fluoro-4-(2-(((2R,7aS)-2-fluorotetrahydro-1H-pyrrolizin-7a(5H)-yl)methoxy)-4-((S)-6-hydroxy-6-methyl-1,4-oxazepan-4-yl)-5,8-dihydropyrido[3,4-d]pyrimidin-7(6H)-yl)benzo[b]thiophene-3-carbonitrile]",,,"IC50 [7, 21]: 75.9 nM; IC50 ([8]; 3 hr compound incubation): > 10000 nM; IC50 [9]: 626 nM; IC50 [10]: 1110 nM; IC50 [11]: 1210 nM; IC50 [12]: 813 nM; IC50 [13]: 1860 nM; IC50 [14]: 484 nM; IC50 [18]: 221 nM"
,,,,,,,,,,,,17,,21,10,19,13,"C[C@@]1(O)CCCN(c2nc(OC[C@@]34CCCN3C[C@H](F)C4)nc3c2CCN(c2ccc(F)c4sc(N)c(C#N)c24)C3)C1 [Example 711, 2-amino-7-fluoro-4-(2-(((2R,7aS)-2-fluorotetrahydro-1H-pyrrolizin-7a(5H)-yl)methoxy)-4-((R)-3-hydroxy-3-methylpiperidin-1-yl)-5,8-dihydropyrido[3,4-d]pyrimidin-7(6H)-yl)benzo[b]thiophene-3-carbonitrile]",,,"IC50 [7, 21]: 830 nM; IC50 ([8]; 3 hr compound incubation): > 10000 nM; IC50 [9]: 1940 nM; IC50 [10]: 7410 nM; IC50 [11]: 4820 nM; IC50 [12]: 2520 nM; IC50 [13]: 7220 nM; IC50 [14]: 2680 nM; IC50 [18]: 424 nM"
,,,,,,,,,,,,3,,3,2,2,< 2,"C=C1CN2CCCC2(COc2nc3c(c(N4CCCC5(CNS(=O)(=O)N5)C4)n2)CCN(c2cc(O)cc4ccc(F)c(CC)c24)C3)C1 (stereo not shown) [Example 712, 7-(7-(8-ethyl-7-fluoro-3-hydroxynaphthalen-1-yl)-2-((2-methylenetetrahydro-1H-pyrrolizin-7a(5H)-yl)methoxy)-5,6,7,8-tetrahydropyrido[3,4-d]pyrimidin-4-yl)-2-thia-1,3,7-triazaspiro[4.5]decane 2,2-dioxide]",,,"IC50 [7, 21]: 1.4 nM; IC50 ([8]; 3 hr compound incubation): 806 nM; IC50 [9]: 70 nM; IC50 [10]: 421 nM; IC50 [11]: 216 nM; IC50 [12]: 141 nM; IC50 [13]: 240 nM; IC50 [14]: 30 nM; IC50 [18]: 19 nM"
